Source: US11254686B1 (Corvus Pharmaceuticals, Inc., priority 2017, dated 2022)

Experiments:
adenosine A3 receptor = adenosine A3 receptor (Homo sapiens (Human), UniProt P0DMS8); test: A3 cAMP IC50 assay (Table 1); type: biochemical
adenosine A2A receptor = adenosine A2A receptor (Homo sapiens (Human), UniProt P29274); test: Adenosine receptor activity assay (Table 1), A2A activity; type: biochemical; details: read-out: Ave A2A cAMP IC50
[1] = Hepatocyte (Hep) intrinsic clearance, rat; type: in vitro ADME; details: hepatocytes
[2] = Hepatocyte (Hep) intrinsic clearance, human; type: in vitro ADME; details: hepatocytes
adenosine A1 receptor = adenosine A1 receptor (Homo sapiens (Human), UniProt P30542); test: A1 cAMP IC50 assay (Table 1); type: biochemical
adenosine A1 receptor, sequence (P30542 whole entry): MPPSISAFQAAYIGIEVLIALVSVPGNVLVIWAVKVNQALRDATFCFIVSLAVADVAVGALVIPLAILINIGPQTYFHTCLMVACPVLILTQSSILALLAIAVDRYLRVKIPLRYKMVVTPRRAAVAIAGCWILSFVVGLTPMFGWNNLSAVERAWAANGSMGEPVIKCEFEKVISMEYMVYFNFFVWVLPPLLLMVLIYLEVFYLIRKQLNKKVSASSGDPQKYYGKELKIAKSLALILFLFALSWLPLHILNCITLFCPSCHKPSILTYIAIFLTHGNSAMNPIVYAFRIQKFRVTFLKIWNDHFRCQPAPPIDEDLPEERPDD

adenosine A2B receptor = adenosine A2B receptor (Homo sapiens (Human), UniProt P29275); test: Adenosine receptor activity assay (Table 1), A2B activity; type: biochemical; details: for Ratio: A2A activity to A2B activity (A2A/A2B); for IC50: read-out: Ave A2B cAMP IC50
adenosine A2B receptor, sequence (P29275 whole entry): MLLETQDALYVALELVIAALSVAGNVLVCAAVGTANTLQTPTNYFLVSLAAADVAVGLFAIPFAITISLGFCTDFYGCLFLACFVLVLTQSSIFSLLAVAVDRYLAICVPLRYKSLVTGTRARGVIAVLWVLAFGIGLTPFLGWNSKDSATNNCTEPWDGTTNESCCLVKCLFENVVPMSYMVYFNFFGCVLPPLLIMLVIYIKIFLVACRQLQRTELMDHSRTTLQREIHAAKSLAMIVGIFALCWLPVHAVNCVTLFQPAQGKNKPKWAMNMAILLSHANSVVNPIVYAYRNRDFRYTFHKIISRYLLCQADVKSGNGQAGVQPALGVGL

adenosine A3 receptor, sequence (P0DMS8 whole entry): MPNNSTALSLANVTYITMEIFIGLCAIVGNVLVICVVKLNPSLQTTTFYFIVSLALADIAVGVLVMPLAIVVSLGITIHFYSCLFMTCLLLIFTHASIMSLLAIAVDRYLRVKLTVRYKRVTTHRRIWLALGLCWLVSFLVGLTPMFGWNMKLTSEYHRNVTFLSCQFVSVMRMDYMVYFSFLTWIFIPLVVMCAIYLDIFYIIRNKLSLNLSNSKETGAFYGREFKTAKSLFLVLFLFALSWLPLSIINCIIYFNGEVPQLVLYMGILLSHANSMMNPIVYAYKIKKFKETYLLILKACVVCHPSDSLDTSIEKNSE
adenosine A2A receptor, sequence (P29274 whole entry): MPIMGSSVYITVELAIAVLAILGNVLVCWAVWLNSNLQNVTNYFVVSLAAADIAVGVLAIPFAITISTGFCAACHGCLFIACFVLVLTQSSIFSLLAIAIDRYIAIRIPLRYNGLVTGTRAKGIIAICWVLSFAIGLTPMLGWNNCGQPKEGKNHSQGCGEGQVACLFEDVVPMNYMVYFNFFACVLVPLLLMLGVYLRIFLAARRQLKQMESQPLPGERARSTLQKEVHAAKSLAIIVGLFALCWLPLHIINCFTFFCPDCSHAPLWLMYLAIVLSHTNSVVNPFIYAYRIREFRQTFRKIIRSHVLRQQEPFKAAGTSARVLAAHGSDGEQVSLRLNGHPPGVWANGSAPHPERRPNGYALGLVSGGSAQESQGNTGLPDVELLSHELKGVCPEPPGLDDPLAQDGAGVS

SMILES | IC50 (adenosine A3 receptor) | IC50 (adenosine A2A receptor) | hepatocyte CLint [1] | hepatocyte CLint [2] | IC50 (adenosine A1 receptor) | Ratio (adenosine A2B receptor) | IC50 (adenosine A2B receptor)
COc1cc(F)cc(CNc2nc(C(=O)N3CC(O)C3)c3sccc3n2)c1 [Example Z137, (2-((3-Fluoro-5-methoxybenzyl)amino)thieno[3,2-d]pyrimidin-4-yl)(3-hydroxyazetidin-1-yl)methanone] | 10 to 50 nM | 100 to 500 nM | 66.8 µL/min/1e6 cells | 74.8 µL/min/1e6 cells | > 500 nM | 19.91 | 10 to 50 nM
C[C@H](Nc1nc(C(=O)N2CC(O)C2)c2sccc2n1)c1cccnc1 [Example Z138, (S)-(3-Hydroxyazetidin-1-yl)(2-((1-(pyridin-3-yl)ethyl)amino)thieno[3,2-d]pyrimidin-4-yl)methanone] | > 500 nM | 100 to 500 nM | 10.3 µL/min/1e6 cells | 1.14 µL/min/1e6 cells | > 500 nM | 14.05 | 10 to 50 nM
COCCNC(=O)c1nc(N[C@@H](C)c2ccccn2)nc2ccsc12 [Example Z144, (S)—N-(2-Methoxyethyl)-2-((1-(pyridin-2-yl)ethyl)amino)thieno[3,2-d]pyrimidine-4-carboxamide] | 50 to 100 nM | 50 to 100 nM |  |  | > 500 nM | 1.52 | 10 to 50 nM
C[C@H](Nc1nc(C(=O)NCc2ccccn2)c2sccc2n1)c1cccnc1 [Example Z89, (S)—N-(Pyridin-2-ylmethyl)-2-((1-(pyridin-3-yl)ethyl)amino)thieno[3,2-d]pyrimidine-4-carboxamide] | 50 to 100 nM | 10 to 50 nM |  |  | > 500 nM | 0.89 | 10 to 50 nM
C[C@H](Nc1nc(C(=O)NC2CC(O)C2)c2sccc2n1)c1ccccn1 (stereo partly drawn) [Example Z158, N-((1s,3R)-3-Hydroxycyclobutyl)-2-(((S)-1-(pyridin-2-yl)ethyl)amino)thieno[3,2-d]pyrimidine-4-carboxamide] |  |  | 22.6 µL/min/1e6 cells | 20.6 µL/min/1e6 cells |  | 9.39 | 
C[C@H](Nc1nc(C(=O)N2CC[C@@H](O)C2)c2sccc2n1)c1cccc(F)c1 [Example Z132, (2-(((S)-1-(3-Fluorophenyl)ethyl)amino)thieno[3,2-d]pyrimidin-4-yl)((R)-3-hydroxypyrrolidin-1-yl)methanone] | > 500 nM | 100 to 500 nM |  |  | > 500 nM | 20.13 | < 10 nM
O=C(c1nc(NCc2cccc(F)c2)nc2ccsc12)N1CCCC1 [Example Z84, (2-((3-Fluorobenzyl)amino)thieno[3,2-d]pyrimidin-4-yl)(pyrrolidin-1-yl)methanone] | > 500 nM | > 500 nM |  |  | > 500 nM | 18.10 | 10 to 50 nM
C[C@H](Nc1nc(C(=O)NCCO)c2sccc2n1)c1cccnc1 [Example Z145, (S)—N-(2-Hydroxyethyl)-2-((1-(pyridin-3-yl)ethyl)amino)thieno[3,2-d]pyrimidine-4-carboxamide] |  | 100 to 500 nM | 8.46 µL/min/1e6 cells | 1.92 µL/min/1e6 cells |  |  | 10 to 50 nM
C[C@H](Nc1nc(C(=O)NCc2ccccc2)c2sccc2n1)c1cccnc1 [Example Z42, (S)—N-Benzyl-2-((1-(pyridin-3-yl)ethyl)amino)thieno[3,2-d]pyrimidine-4-carboxamide] | 50 to 100 nM | 10 to 50 nM |  |  | 100 to 500 nM | 0.20 | 100 to 500 nM
C[C@H](Nc1nc(C(=O)N2CCC2)c2sccc2n1)c1cccc(F)c1 [Example Z128, (S)-Azetidin-1-yl(2-((1-(3-fluorophenyl)ethyl)amino)thieno[3,2-d]pyrimidin-4-yl)methanone] | > 500 nM | 50 to 100 nM |  |  | > 500 nM | 32.43 | < 10 nM
CNc1cc2nc(N[C@@H](C)c3cccnc3)nc(C(=O)N3CCC3)c2s1 [Example Z153, (S)-Azetidin-1-yl(6-(methylamino)-2-((1-(pyridin-3-yl)ethyl)amino)thieno[3,2-d]pyrimidin-4-yl)methanone] | 50 to 100 nM | 100 to 500 nM |  |  | > 500 nM | 46.65 | < 10 nM
O=C(c1nc(NCc2cncc(Cl)c2)nc2ccsc12)N1CCCC1 [Example Z93, (2-(((5-Chloropyridin-3-yl)methyl)amino)thieno[3,2-d]pyrimidin-4-yl)(pyrrolidin-1-yl)methanone] | > 500 nM | > 500 nM |  |  | > 500 nM | 57.59 | 10 to 50 nM
COc1cccc(CNC(=O)c2nc(N[C@@H](C)c3cccnc3)nc3ccsc23)n1 [Example Z73, (S)—N-((6-Methoxypyridin-2-yl)methyl)-2-((1-(pyridin-3-yl)ethyl)amino)thieno[3,2-d]pyrimidine-4-carboxamide] | 50 to 100 nM | 50 to 100 nM |  |  | > 500 nM | 3.11 | 10 to 50 nM
O=C(c1nc(NCc2ccccn2)nc2ccsc12)N1CCCC1 [Example Z95, (2-((Pyridin-2-ylmethyl)amino)thieno[3,2-d]pyrimidin-4-yl)(pyrrolidin-1-yl)methanone] | > 500 nM | 100 to 500 nM |  |  | > 500 nM | 8.80 | 10 to 50 nM

Results, then the compound that gave them:

IC50 (adenosine A3 receptor) | IC50 (adenosine A2A receptor) | hepatocyte CLint [1] | hepatocyte CLint [2] | IC50 (adenosine A1 receptor) | Ratio (adenosine A2B receptor) | IC50 (adenosine A2B receptor) | SMILES
> 500 nM | > 500 nM | 10 µL/min/1e6 cells | 2.16 µL/min/1e6 cells | > 500 nM | 114.79 | 10 to 50 nM | CNc1cc2nc(N[C@@H](C)c3cccnc3)nc(C(=O)N3CC[C@H](O)C3)c2s1 [Example Z188, ((S)-3-Hydroxypyrrolidin-1-yl)(6-(methylamino)-2-(((S)-1-(pyridin-3-yl)ethyl)amino)thieno[3,2-d]pyrimidin-4-yl)methanone]
> 500 nM | 100 to 500 nM | 23.7 µL/min/1e6 cells | 24.9 µL/min/1e6 cells | > 500 nM | 37.09 | < 10 nM | O=C(NC1CC(O)C1)c1nc(NCc2cncc(F)c2)nc2ccsc12 (stereo not shown) [Example Z183, 2-(((5-Fluoropyridin-3-yl)methyl)amino)-N-((1s,3s)-3-hydroxycyclobutyl)thieno[3,2-d]pyrimidine-4-carboxamide]
50 to 100 nM | 100 to 500 nM |  |  | > 500 nM | 16.55 | 10 to 50 nM | CC(C)(C)OC(=O)N[C@@H]1CCN(C(=O)c2nc(NCc3cc(F)cc(F)c3)nc3ccsc23)C1 [Example Z167, tert-Butyl (R)-(1-(2-((3,5-difluorobenzyl)amino)thieno[3,2-d]pyrimidine-4-carbonyl)pyrrolidin-3-yl)carbamate]
50 to 100 nM | > 500 nM |  |  | > 500 nM | 22.65 | 10 to 50 nM | CNc1cc2nc(NCc3ccccn3)nc(C(=O)N3CCCC3)c2s1 [Example Z160, (6-(Methylamino)-2-((pyridin-2-ylmethyl)amino)thieno[3,2-d]pyrimidin-4-yl)(pyrrolidin-1-yl)methanone]
50 to 100 nM | > 500 nM |  |  | > 500 nM | 27.44 | 10 to 50 nM | CNc1cc2nc(N[C@@H](C)c3ccccn3)nc(C(=O)N3CC[C@@H](O)C3)c2s1 [Example Z176, ((R)-3-Hydroxypyrrolidin-1-yl)(6-(methylamino)-2-(((S)-1-(pyridin-2-yl)ethyl)amino)thieno[3,2-d]pyrimidin-4-yl)methanone]
> 500 nM | 50 to 100 nM |  |  | 50 to 100 nM | 7.01 | 10 to 50 nM | O=C(NC1CCC1)c1nc(NCc2cc(F)cc(F)c2)nc2ccsc12 [Example Z177, N-Cyclobutyl-2-((3,5-difluorobenzyl)amino)thieno[3,2-d]pyrimidine-4-carboxamide]
50 to 100 nM | 100 to 500 nM |  |  | > 500 nM | 36.15 | < 10 nM | C[C@H](Nc1nc(C(=O)N2CCC2)c2sc(N)cc2n1)c1ccccn1 [Example Z189, (S)-(6-Amino-2-((1-(pyridin-2-yl)ethyl)amino)thieno[3,2-d]pyrimidin-4-yl)(azetidin-1-yl)methanone]
> 500 nM | 100 to 500 nM |  |  | > 500 nM | 4.38 | 50 to 100 nM | C[C@H](O)CNC(=O)c1nc(N[C@@H](C)c2ccccn2)nc2ccsc12 [Example Z163, N—((S)-2-Hydroxypropyl)-2-(((S)-1-(pyridin-2-yl)ethyl)amino)thieno[3,2-d]pyrimidine-4-carboxamide]
> 500 nM | 100 to 500 nM |  |  | > 500 nM | 5.18 | 10 to 50 nM | C[C@H](Nc1nc(C(=O)N[C@H]2C[C@H](O)C2)c2sccc2n1)c1ccccn1 [Example Z159, N-((1r,3S)-3-Hydroxycyclobutyl)-2-(((S)-1-(pyridin-2-yl)ethyl)amino)thieno[3,2-d]pyrimidine-4-carboxamide]
> 500 nM | 100 to 500 nM |  |  | > 500 nM | 5.97 | 10 to 50 nM | C[C@H](Nc1nc(C(=O)NC[C@@H](C)O)c2sccc2n1)c1ccccn1 [Example Z162, N—((R)-2-Hydroxypropyl)-2-(((S′)-1-(pyridin-2-yl)ethyl)amino)thieno[3,2-d]pyrimidine-4-carboxamide]
50 to 100 nM | 100 to 500 nM |  |  | > 500 nM | 29.83 | < 10 nM | CNc1cc2nc(N[C@@H](C)c3cccnc3)nc(C(=O)N3CC[C@@H](F)C3)c2s1 [Example Z161, ((R)-3-Fluoropyrrolidin-1-yl)(6-(methylamino)-2-(((S)-1-(pyridin-3-yl)ethyl)amino)thieno[3,2-d]pyrimidin-4-yl)methanone]
